How the values were obtained:
[1] = system: primary PDA cells; assay: Rgs16::GFP PDA primary cell culture, live cell counts after 24 hr drug treatment; type: cell-based, mouse; details: 24 hr, gemcitabine 10 μM, BGB324 or warfarin 1 or 10 μM
Method: Cell proliferation counts of primary PDA culture after 24 hr treatment with (FIG. 20A) gemcitabine (purple round); (FIG. 20B) BGB324 (green round); (FIG. 20C) warfarin (blue round); or (FIG. 20D) BGB324 with warfarin (green or blue round) at the indicated concentrations. PDA primary cells were plated at equal density (black open circle) at the start. Next day, cells were treated with drugs (D, red font) for 24 hr (red line). Approximate cell number at the start of drug treatment was obtained from another plate with equal density (red open circle). At the end of treatment, cells in each group were counted and subsequent passages started with cells plated at equal density (grey asterisk). Drug treated groups were allowed to grow without drug selection thereafter. Control cells (Ctrl) on separate plates were grown without drug and counted at the end of each passage (black open circle). PDA live cell numbers were obtained via counts using a hemocytometer after 2% Trypan blue staining to distinguish between living and dead cells under an inverted microscope with 10× objective. Statistical significances are based on comparison of drug-treated cell counts to Ctrl. […] Statistical analyses were obtained by comparing counts of drug-treated cells to Ctrl via unpaired and two-tailed Student's t-test. *, p<0.05; **, p<0.01; ***, p<0.001; ****, p<0.0001. Asterisks match the color of the comparison group.
Rgs16::GFP PDA primary cell culture. Primary Rgs16::GFP PDA cells were harvested from 6-week-old KIC mice. Cells were grown in 25 mM Glucose DMEM (HyClone) with 10% FBS (Serum Source International), penicillin and streptomycin (Life Technologies) on rat tail collagen typel (BD Biosciences) coated plates (0.5 μg/cm^2) in a humidified incubator at 37° C. and 5% CO2. Cells reaching confluency were washed twice with PBS (HyClone) and lifted with 0.05% Trypsin-EDTA (HyClone) treatment up to 10 min in the incubator. For drug tests in FIGS. 20A-D, primary PDA cells were incubated with gemcitabine (10 μM dissolved in PBS), warfarin (1 μM or 10 μM dissolved in water), BGB324 (1 μM or 10 μM dissolved in DMSO) or warfarin and BGB324 together for 24 hrs in 37° C. incubator. PDA live cell numbers were obtained via counts using a hemocytometer following 2% trypan blue staining to distinguish dead cells under an inverted microscope.

[2] = system: KIC tumors; assay: Low dose warfarin in drinking water, spontaneous genetic PDA model; type: in vivo, mouse; details: warfarin 0.5 mg/L drinking water, 4 weeks from 3 weeks of age
Method: (FIG. 23A) Primary tumor burden after therapy with warfarin. Therapy was initiated when implanted tumors were visible by ultrasound (˜10 mm^3) and consisted of control (normal drinking water) or warfarin, administered in the drinking water at 0.5 mg/L (immunocompetent mice: Pan02 (n=4, control; 3, warfarin), KIC (n=10, control; 8, warfarin)) or 1 mg/L (Panc-1 (n=10, control; 8, warfarin), AsPC-1 (n=8, control; 6, warfarin), Capan-1 (n=10, control; 7, warfarin)) and continued for 2-4 weeks until control mice were moribund. Therapy in KIC mice was initiated at 3 weeks of age and continued for 4 weeks. (FIG. 23B) Metastases were determined grossly upon sacrifice and confirmed by histological evaluation of the liver. […] Incidence of metastasis is also indicated. […] Tumor volume determined by serial ultrasound. […] Therapy with mAb 10C9 (250 μg 2×/week) was initiated when tumors were established as above and persisted for 4 weeks. […] Error bars indicate s.e.m.
Animal studies. […] Mice with established tumors, as determined by sonography were randomized to receive normal drinking water or water containing 1 mg/L (˜3.0 μM) warfarin for experiments in immunocompromised mice and 0.5 mg/L (˜1.5 μM) in experiments in immunocompetent animals with or without gemcitabine 25 mg/kg twice weekly depending on experimental design.

CC(=O)CC(c1ccccc1)c1c(O)c2ccccc2oc1=O (racemic) [Warfarin]
effect on cell viability and proliferation [1]: little or no effect on cell growth
effect on cell viability and proliferation ([1]; listed as warfarin): no effect
primary tumor growth [2]: reduced primary tumor growth
